Reference: the supplement of paper PMC10307832

Experiments:
Experiment in all cases: relative viability (nuclei count vs DMSO), 5 days (fraction); higher = more cells survive
[1] = compound: CC1CC(=O)N(C2=CN=C(N=C2N1C3CCCC3)NC4=C(C=C(C=C4)C(=O)NC5CCN(CC5)C)OC)C [NPK76-II-72-1]
Outline: (§1)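 Cells of lung cancer lines were placed in 1536-well plates and kept overnight at 37 °C. Pinning then delivered five library-drug doses (not always all listed), spaced by √10, onto plates anchored with vehicle, and the cells were left 5 days without changing medium. One step fixed, permeabilised and stained them with Hoechst, and MetaXpress counted nuclei in 4× images. Viability, as a median over plates, is treated-well nuclei divided by vehicle-well nuclei, with acceptance only at control CV below 25% and at least one doubling.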

[2] = compound: CC[C@@H]1C(=O)N(C)c2cnc(Nc3ccc(C(=O)NC4CCN(C)CC4)cc3OC)nc2N1C1CCCC1 [BI-2536]
Outline: as §1

[3] = compound: CC1CC(=O)N(C2=CN=C(N=C2N1C3CCCC3)NC4=C(C=C(C=C4)C(=O)NC5CCN(CC5)C)OC)C [NPK76-II-72-1] + CC1(C)CCC(c2ccc(Cl)cc2)=C(CN2CCN(c3ccc(C(=O)NS(=O)(=O)c4ccc(N[C@H](CCN5CCOCC5)CSc5ccccc5)c(S(=O)(=O)C(F)(F)F)c4)cc3)CC2)C1 [Navitoclax] (partner 0.5 µM)
Outline: (§2)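 Relative viability is defined as nuclei in treated wells over nuclei in vehicle wells. Duplicate plates were run and medians reported. Lung cancer cell lines in 1536-well plates were dosed by pin tool one day after seeding, with one drug or with a fixed anchor-drug dose plus five library-drug doses (not always all listed) in √10 steps, and nuclei were counted after 5 days.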

[4] = compound: CC[C@@H]1C(=O)N(C)c2cnc(Nc3ccc(C(=O)NC4CCN(C)CC4)cc3OC)nc2N1C1CCCC1 [BI-2536] + N=C(N)NC(=N)NCCc1ccccc1 [Phenformin] (partner 250 µM)
Outline: as §2

Cell Line	relative viability ([1]; 0.01 µM)	relative viability ([1]; 0.03162 µM)	relative viability ([1]; 0.1 µM)	relative viability ([1]; 0.3162 µM)	relative viability ([1]; 1 µM)	relative viability ([2]; 0.01 µM)	relative viability ([2]; 0.03162 µM)	relative viability ([2]; 0.1 µM)	relative viability ([2]; 0.3162 µM)	relative viability ([2]; 1 µM)	relative viability ([3]; first compound 0.01 µM)	relative viability ([3]; first compound 0.03162 µM)	relative viability ([3]; first compound 0.1 µM)	relative viability ([3]; first compound 0.3162 µM)	relative viability ([3]; first compound 1 µM)	relative viability ([4]; first compound 0.01 µM)	relative viability ([4]; first compound 0.03162 µM)	relative viability ([4]; first compound 0.1 µM)	relative viability ([4]; first compound 0.3162 µM)	relative viability ([4]; first compound 1 µM)
201T	0.973	1	0.958	0.988	1.03	0.996	0.987	0.977	0.391	0.255	1.18	1.18	1.23	1.2	1.19	0.38	0.431	0.276	0.315	0.23
HCC-44	1	1.04	0.96	0.969	1.07	1.01	0.996	0.31	0.155	0.129	0.997	0.969	0.915	0.919	1.11	0.184	0.242	0.0815	0.1	0.0914
NCI-H596	0.99	0.97	1.02	1.02	1.01	0.963	1.11	0.747	0.402	0.286	0.862	1.01	0.828	0.965	1.04	0.729	0.737	0.917	0.358	0.245
H3255	0.918	0.938	0.995	0.72	1.1	0.86	0.872	0.573	0.257	0.29	0.556	0.494	0.52	0.173	0.639	0.3	0.318	0.306	0.268	0.329
NCI-H647	0.886	0.971	1.01	1.03	1.06	0.925	0.874	0.161	0.0642	0.0923	0.986	1.05	1.23	1.11	1.2	0.423	0.349	0.107	0.059	0.0765
NCI-H2023	0.904	1.05	1.07	0.941	0.96	0.954	0.909	0.266	0.0935	0.11	0.943	0.947	0.969	0.923	1.01	0.406	0.408	0.119	0.0985	0.0823
NCI-H23	0.944	1.06	0.854	0.957	1.11	0.926	0.797	0.179	0.141	0.17	0.774	1.08	–	0.675	0.784	0.769	0.781	0.415	0.115	0.122
NCI-H1944	0.931	0.974	0.92	0.921	1.08	0.902	1.07	0.649	0.203	0.194	0.997	1.02	1.05	0.971	1.06	0.206	0.243	0.122	0.0925	0.113
NCI-H1793	0.76	1.06	1.15	0.741	0.915	0.912	0.816	0.314	0.161	0.196	0.399	0.642	0.477	0.302	0.41	0.369	0.197	0.149	0.138	0.139
NCI-H520	0.869	1.03	0.991	1.03	0.947	0.902	0.737	0.61	0.238	0.225	0.927	1.05	1.01	1.04	1.03	0.572	0.408	0.218	0.255	0.281
A549	0.937	1.05	1.01	1	1.03	0.987	0.936	0.628	0.0475	0.0473	1.17	1.29	1.22	1.12	1.15	0.143	0.132	0.0229	0.0377	0.0372
NCI-H460	0.98	1.04	1.02	0.983	0.992	1.05	1.03	0.552	0.0431	0.0258	1.17	1.45	1.19	1.18	1.23	0.524	0.409	0.0506	0.0146	0.0134
EKVX	0.946	0.938	0.953	0.713	1.21	0.966	1.05	0.958	0.254	0.165	0.909	1.03	0.865	0.648	1.13	0.242	0.224	0.225	0.242	0.211
EPLC-272H	0.96	0.951	1.06	0.86	1.07	0.852	0.707	0.117	0.26	0.0971	1.06	0.97	1.12	1.09	1.35	0.241	0.28	0.105	0.109	0.103
NCI-H1395	0.893	0.906	0.953	0.955	0.993	0.844	0.817	0.435	0.337	0.34	0.994	1.14	1.24	1.46	1.25	0.439	0.444	0.293	0.279	0.316
